Biological target: T1, Furin [108-574] (Homo sapiens, UniProt P09958)
T1 construct: 108-574
Test: Furin Enzyme Assay
Protocol: Reactions were performed in black 384-well polystyrene low volume plates (Greiner). […] Compounds of the invention were dissolved in DMSO (1.0 mM) and serially diluted 1 to 3 with DMSO through eleven dilutions to provide a final compound concentration range from 0.00017 to 10 μM. 0.05 μL of each concentration was transferred to the corresponding well of an assay plate, and then 5 μL of 40 pM furin enzyme in assay buffer (100 mM HEPES pH7.5, 1 mM CaCl2 and 0.005% Triton X-100) was added using a Multidrop Combi (Thermo) to the compound plates, and mixed by inversion. […] The plates were centrifuged at 500×g for 1 minute and incubated at room temperature for two hours. Enzyme inhibition is then quantified using an Envision instrument (PerkinElmer).

T1 sequence (P09958 108-574): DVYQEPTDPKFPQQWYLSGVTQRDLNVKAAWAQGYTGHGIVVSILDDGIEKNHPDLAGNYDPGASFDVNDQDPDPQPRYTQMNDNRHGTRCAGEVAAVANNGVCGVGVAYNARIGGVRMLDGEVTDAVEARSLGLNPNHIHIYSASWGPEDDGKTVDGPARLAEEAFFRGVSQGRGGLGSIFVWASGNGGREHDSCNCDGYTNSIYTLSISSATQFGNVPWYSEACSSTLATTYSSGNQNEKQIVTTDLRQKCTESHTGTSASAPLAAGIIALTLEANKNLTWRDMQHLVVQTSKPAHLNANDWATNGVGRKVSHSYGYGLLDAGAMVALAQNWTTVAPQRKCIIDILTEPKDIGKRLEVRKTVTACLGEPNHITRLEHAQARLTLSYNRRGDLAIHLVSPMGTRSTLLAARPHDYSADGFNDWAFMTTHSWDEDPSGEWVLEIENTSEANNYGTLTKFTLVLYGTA

| Structure (SMILES) | IC50 |
| --- | --- |
| CNC(=O)NCC1CCN(Cc2cc(Oc3cnc(N4CCN(CCC(C)[S+](C)[O-])CC4)nc3)nc(-c3cc(Cl)cc(Cl)c3)c2)CC1 (configuration not stated) [US11773078, Example 17] | 32 pM |
| COC(=O)NCC1CCN(Cc2cc(Oc3cnc(N4CC5CCC(C4)N5CCC(=O)O)nc3)nc(-c3cc(Cl)cc(Cl)c3)c2)CC1 [US11773078, Example 56] | 32 pM |
| CNC(=O)OCC1CCN(Cc2cc(Oc3ccc(N4CCN(C)CC4)nc3)nc(-c3cc(Cl)cc(Cl)c3)c2)CC1 [US11773078, Example 67] | 1580 pM |
| CNC(=O)NCC1CCN(Cc2cc(Oc3cnc(N4CCN(C)CC4)nc3)nc(-c3cc(Cl)cc(Cl)c3)c2)CC1 [US11773078, Example 70] | 32 pM |
| CC(=O)NCC1CCN(Cc2cc(Cc3cnc(N4CC5CCC(C4)N5C)nc3)nc(-c3cc(Cl)cc(Cl)c3)c2)CC1 [US11773078, Example 71] | 200 pM |
| CC(=O)NCC1CCN(Cc2cc(Oc3cnc(N4CCN(CCCO)CC4)nc3)cc(-c3cc(Cl)cc(Cl)c3)c2)CC1 [US11773078, Example 113] | < 158 pM |
| O=C(O)CCC1CCN(Cc2cc(Oc3cnc(N4CCN(CCO)CC4)nc3)cc(-c3cc(Cl)cc(Cl)c3)c2)CC1 [US11773078, Example 114] | < 158 pM |
| CC(C)(O)CCC1CCN(Cc2cc(Oc3ccc(N4CCNCC4)nc3)nc(-c3cc(Cl)cc(Cl)c3)c2)CC1 [US11773078, Example 120] | 2000 pM |
| CN1CCC(c2ncc(Oc3cc(CN4CCC(CC(=O)O)CC4)cc(-c4cc(Cl)cc(Cl)c4)n3)cn2)CC(F)C1 (configuration not stated) [US11773078, Example 147] | 631 pM |
| CC(O)CCN1CCC(c2cnc(Cc3cc(CN4CCC(CC(N)=O)CC4)cc(-c4cc(Cl)cc(Cl)c4)n3)cn2)CC1 (configuration not stated) [US11773078, Example 164] | 3980 pM |
| CC(=O)NCC1CCN(Cc2cc(Cc3ccc(N4CCN(CCC(=O)O)CC4)nn3)nc(-c3cc(Cl)cc(Cl)c3)c2)CC1 [US11773078, Example 169] | 32 pM |
| CC(=O)NCC1CCN(Cc2cc(Oc3cnc(N4CCN(C(=O)CCN)CC4)nc3)cc(-c3cc(Cl)cc(Cl)c3)c2)CC1 [US11773078, Example 170] | 794 pM |
| COC(=O)NC(=O)CCN1CCN(c2ncc(Cc3cc(CN4CCC(CNC(C)=O)CC4)cc(-c4cc(Cl)cc(Cl)c4)c3)cn2)CC1 [US11773078, Example 172] | 251 pM |
| CC(=O)NCC1CCN(Cc2cc(Oc3cnc(N4CCN(CCC5(C(=O)O)CC5)CC4)nc3)cc(-c3cc(Cl)cc(Cl)c3)c2)CC1 [US11773078, Example 173] | 398 pM |
| CC(=O)NCC1CCN(Cc2cc(Oc3ccc(N4C[C@H](C)N(CCS(C)(=O)=O)C[C@@H]4C)nc3)nc(-c3cc(Cl)cc(Cl)c3)c2)CC1 [US11773078, Example 183] | 25 pM |
| CC(=O)NCC1CCN(Cc2cc(Oc3ccc(N4C[C@H](CN)[C@@H](O)C4)nc3)nc(-c3cc(Cl)cc(Cl)c3)c2)CC1 [US11773078, Example 184] | 251 pM |

| Structure (SMILES) | IC50 |
| --- | --- |
| O=C(O)CC1CCN(Cc2cc(Oc3ccc(C4C[C@@H]5C[C@H]4CN5)nc3)nc(-c3cc(Cl)cc(Cl)c3)c2)CC1 (some centres not stated) [US11773078, Example 187] | 1260 pM |
| CNC(=O)OCC1CCN(Cc2cc(Oc3cnc(N4CCN(C(C)CCC(=O)O)CC4)nc3)nc(-c3cc(Cl)cc(Cl)c3)c2)CC1 (configuration not stated) [US11773078, Example 208] | 13 pM |
| CC(=O)NCC1CCN(Cc2cc(Cc3cnc(N4CCN(C(C)CCC(=O)O)CC4)nc3)nc(-c3cc(Cl)cc(Cl)c3)c2)CC1 (configuration not stated) [US11773078, Example 215] | 398 pM |
| CNC(=O)NCC1CCN(Cc2cc(Cc3cnc(N4CCN(CCC(C)S(C)(=O)=O)CC4)nc3)nc(-c3cc(Cl)cc(Cl)c3)c2)CC1 (configuration not stated) [US11773078, Example 220] | 63 pM |
| CN1C2CC1CN(c1ncc(Oc3cc(CN4CCC(CC(=O)O)CC4)cc(-c4cc(Cl)cc(Cl)c4)n3)cn1)C2 [US11773078, Example 228] | 2510 pM |
| CNC(=O)OCC1CCN(Cc2cc(Oc3cnc(N4CCN(CCC(=O)O)CC4)nc3)nc(-c3cc(Cl)cc(Cl)c3)c2)CC1 [US11773078, Example 248] | 32 pM |
| CC(=O)NCC1CCN(Cc2cc(Oc3ccc(N4CCN(CCCS(C)(=O)=O)CC4)nc3)nc(-c3cc(Cl)cc(Cl)c3)c2)CC1 [US11773078, Example 251] | < 158 pM |
| CNC(=O)NCC1CCN(Cc2cc(Oc3ccc(N4CCN(CCCS(N)(=O)=O)CC4)nc3)nc(-c3cc(Cl)cc(Cl)c3)c2)CC1 [US11773078, Example 260] | 200 pM |
| NS(=O)(=O)CCC1CCN(Cc2cc(Oc3ccc(N4CCN(CCC(=O)O)CC4)nc3)nc(-c3cc(Cl)cc(Cl)c3)c2)CC1 [US11773078, Example 277] | 32 pM |
| CC(=O)NCC1CCN(Cc2cc(Oc3cnc(C4CCN(C(C)CC(=O)O)CC4)nc3)nc(-c3cc(Cl)cc(Cl)c3)c2)CC1 (configuration not stated) [US11773078, Example 282] | 200 pM |
| CC(=O)NCC1CCN(Cc2cc(Oc3cnc(N4CCN(CCS(=O)(=O)O)CC4)nc3)nc(-c3cc(Cl)cc(Cl)c3)c2)CC1 [US11773078, Example 287] | 2000 pM |
| CNC(=O)NCC1CCN(Cc2cc(Oc3cnc(N4CCN(CCO)CC4)nc3)cc(-c3cc(Cl)cc(Cl)c3)c2)CC1 [US11773078, Example 313] | < 158 pM |
| CN1CCN(c2ncc(Oc3cc(CN4CC[C@@H]5[C@H](CC4)[C@H]5C(=O)O)cc(-c4cc(Cl)cc(Cl)c4)n3)cn2)CC1 [US11773078, Example 321] | 794 pM |
| CN1CCCN(c2ccc(Oc3cc(CN4CC[C@@H]5[C@H](CC4)[C@H]5C(=O)O)cc(-c4cc(Cl)cc(Cl)c4)n3)nn2)CC1 [US11773078, Example 362] | 32 pM |
| C[C@H](CC1CCN(Cc2cc(Oc3ccc(N4CCN(C)CC4)nn3)nc(-c3cc(Cl)cc(Cl)c3)c2)CC1)C(=O)O [US11773078, Example 364] | 200 pM |
| CN1C2CCC1CN(c1ncc(Cc3nc(-c4cc(Cl)cc(Cl)c4)cc(CN4CCC(CC(=O)O)CC4)c3F)cn1)C2 [US11773078, Example 378] | 2000 pM |

From BindingDB's records for patent US117730 (Glaxosmithkline Intellectual Property Development, 2023)
